From patent publication US20040106545A1, “Compounds and methods for modulating cell adhesion” (priority 1996, published 2004) come the findings set out here.

Several values for one entry are separate records, joined by “and”; a condition that tells them apart may be missing. Equal entries are not always repeated. Entries after “also recorded” stand apart in the source; their conditions may differ. Positions of bridges follow the written chain, without caps; N, C: chain ends. Residues, ends and D or L forms follow the SMILES beside them.

Assay [1] has as its system WI-38. It counts as cell-based, human. The following applies: 3 h. In outline: (§1)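 Cytotoxicity of N-Ac-CHAVC-NH2 and the control peptide N-Ac-CHGVC-NH2 was assessed by MTT reduction in human endothelial, fibroblast and cancer cell lines at concentrations up to 100 μM. Proliferation was measured separately by ^3H-thymidine incorporation over the same concentration range.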

For assay [2], the system named is HUVEC. Format: cell-based, human. As to conditions: 3 h. In outline: as §1
In assay [3] the test system is IAFp2. It counts as cell-based, human. The following applies: 3 h. An outline of the steps: as §1
The subject of assay [4] is HMVEC. Format: cell-based, human. As to conditions: 3 h. An outline of the steps:
as §1

The subject of assay [5] is SKOV3 human ovarian cancer cells. The assay can be described thus: Induction of apoptosis in SKOV3 cancer cells, in situ cell death detection. It counts as cell-based. The following applies: 0.5 or 0.25 mg/mL, 48 hours. Here is the method: Direct assays of induction of apoptosis may be performed using any standard technique. For example, cadherin-expressing cells (e.g., SKOV3 human ovarian cancer cells) may be plated onto poly-L-lysine coated glass slides and cultured with 500 μg/mL of modulating agent for 24-48 hours. Cells may then be fixed and assayed for cell death using any of a variety of well known methods. For example, an in situ cell death detection kit may be purchased from Boehringer Mannheim (Laval, Quebec) and used according to the manufacturer's instructions.
SKOV3 human ovarian cancer cells cultured in the presence of either N—Ac-CHAVC-NH2 (SEQ ID NO:10) or a control peptide (N—Ac-CHGVC-NH2; SEQ ID NO:11) in MEM with 10% FBS were plated onto poly-L-lysine coated glass slides. The cells were cultured for 24 or 48 hours and fixed with 4% paraformaldehyde for 30 minutes at room temperature. The slides were then washed three times with PBS and assessed for cell death. Cells were treated with 0.5 or 0.25 mg/mL of N—Ac-CHAVC-NH2 (SEQ ID NO:10) or the control N—Ac-CHGVC-NH2 (SEQ ID NO:11), as indicated. Cell death was measured as described by Gavrieli et al, J. Cell. Biol. 119:493-501, 1992 and using the In situ cell death detection kit (Boehringer Mannheim; Laval, Quebec).

Assay [6] relates to human skin. Description: Human skin permeability, Franz Cell apparatus. Here is the method: Another cell adhesion assay involves evaluating the effect of a modulating agent on permeability of adherent epithelial and/or endothelial cell layers. For example, the effect on permeability of human skin may be evaluated. Such skin may be derived from a natural source or may be synthetic. Human abdominal skin for use in such assays may generally be obtained from humans at autopsy within 24 hours of death. Briefly, a cyclic peptide and a test marker (e.g., the fluorescent markers Oregon Green™ and Rhodamine Green™ Dextran) may be dissolved in a sterile buffer, and the ability of the marker to penetrate through the skin and into a receptor fluid may be measured using a Franz Cell apparatus (Franz, Curr. Prob. Dermatol. 7:58-68, 1978; Franz, J. Invest. Dermatol. 64:190-195, 1975). In general, a modulating agent that enhances the permeability of human skin results in a statistically significant increase in the amount of marker in the receptor compartment after 6-48 hours in the presence of 500 μg/mL modulating agent. This assay evaluates the effect of a modulating agent on E-cadherin mediated cell adhesion.
Abdominal skin from humans at autopsy within 24 hours of death was used in these assays. The effect of N—Ac-CHAVC-NH2 (SEQ ID NO:10) and N—Ac-CHGVC-NH2 (SEQ ID NO:11), used at a concentration of 500 μg/ml or 2.5 mg/ml, on the penetration of two fluorescent markers, Oregon Green 488 (charge −1, MW 386 daltons) and Rhodamine Green 3000 Dextran (no charge, MW 3000 daltons) through human skin was then evaluated utilizing a Franz Cell apparatus (Franz, Curr. Prob. Dermatol. 7:58-68, 1978; Franz, J. Invest. Dermatol. 64:190-195, 1975). The peptides and markers were dissolved in sterile phosphate buffer, pH 7.2, and phosphate buffer was used as the receptor fluid. 150 μl of solution containing 0.2 mg Oregon Green and 1.0 mg Rhodamine Green was used to evaluate 500 μg/ml peptide; 200 μl of solution containing 0.05 mg Oregon Green and 1.250 mg Rhodamine Green was used to evaluate 2.5 mg/ml peptide. The solution was placed on top of the epidermal side of the skin, and the penetration of the markers through the skin was assessed using a fluorescent spectrophotometric method (in a Perkin Elmer 650-105 Fluorescence Spectrophotometer, and comparing the reading to a standard curve) at 6, 12, 24, 36, and 48 hours after the start of the experiment. The fluorescent units were converted to a concentration unit of microgram/5 ml (volume of the receiver compartment) using a standard curve and regression analysis equations. The curve was linear for the concentrations tested for both markers (r^2=1 for OrG and 0.997 for RhG). For each peptide and marker combination, the experiment was performed in triplicate.

Setting [7] is: 500 μg/ml Peptide, t = 6 hours, Mean.
The mark [8] stands for this setting: 500 μg/ml Peptide, t = 6 hours, single replicates, listed as Sample#1.
The mark [9] stands for this setting: 500 μg/ml Peptide, t = 12 hours, Mean.
Setting [10] is: 500 μg/ml Peptide, t = 12 hours, single replicates, listed as Sample#1.
Setting [11] is: 500 μg/ml Peptide, t = 24 hours, Mean.
The mark [12] stands for this setting: 500 μg/ml Peptide, t = 24 hours, single replicates, listed as Sample#1.
[13] abbreviates: 500 μg/ml Peptide, t = 36 hours, Mean.
Setting [14] is: 500 μg/ml Peptide, t = 36 hours, single replicates, listed as Sample#1.
The mark [15] stands for this setting: 500 μg/ml Peptide, t = 48 hours, Mean.
[16] abbreviates: 500 μg/ml Peptide, t = 48 hours, single replicates, listed as Sample#1.
The mark [17] stands for this setting: 2.5 mg/ml Peptide, t = 6 hours, Mean.
[18] abbreviates: 2.5 mg/ml Peptide, t = 6 hours, single replicates, listed as Sample#1.
[19] abbreviates: 2.5 mg/ml Peptide, t = 12 hours, Mean.
Setting [20] is: 2.5 mg/ml Peptide, t = 12 hours, single replicates, listed as Sample#1.
[21] abbreviates: 2.5 mg/ml Peptide, t = 24 hours, Mean.
The mark [22] stands for this setting: 2.5 mg/ml Peptide, t = 24 hours, single replicates, listed as Sample#1.
[23] abbreviates: 2.5 mg/ml Peptide, t = 36 hours, Mean.
Setting [24] is: 2.5 mg/ml Peptide, t = 36 hours, single replicates, listed as Sample#1.
The mark [25] stands for this setting: 2.5 mg/ml Peptide, t = 48 hours, Mean.
[26] abbreviates: 2.5 mg/ml Peptide, t = 48 hours, single replicates, listed as Sample#1.

As usually defined, the IC50 is the concentration that gives 50% inhibition. On to `CC[C@H](C)[C@@H]1NC(=O)[C@H](CC(=O)O)NC(=O)[C@H](C(C)C)NC(=O)[C@H](C)NC(=O)[C@H](Cc2c[nH]cn2)NC(=O)[C@H](C)NC(=O)[C@@H](NC(C)=O)CSSC[C@@H](C(N)=O)NC1=O` (Ac-CAHAVDIC-NH2; disulfide 1-8), for which the IC50 in assay [1], in assay [2], in assay [3] and in assay [4] was over 100 µM each time.

`CC(=O)N[C@H]1CSSC[C@@H](C(N)=O)NC(=O)[C@H](CC(=O)O)NC(=O)[C@H](C(C)C)NC(=O)[C@H](C)NC(=O)[C@H](Cc2c[nH]cn2)NC(=O)[C@H](C)NC1=O` [N—Ac—CAHAVDC—NH2, N-Ac-Cys-Ala-His-Ala-Val-Asp-Cys-NH2] (Ac-CAHAVDC-NH2; disulfide 1-7): the IC50 in assay [1], in assay [2], in assay [3] and in assay [4] was over 100 µM throughout.

With `CC(=O)N[C@H]1CSSC[C@@H](C(N)=O)NC(=O)[C@H](C(C)C)NC(=O)[C@H](C)NC(=O)[C@H](Cc2c[nH]cn2)NC1=O` [N—Ac—CHAVC—NH2, N-Ac-Cys-His-Ala-Val-Cys-NH2], the “cell death of SKOV3 cells” value in assay [5] is “fluorescent green nuclei in FIGS. 35C and 35D indicate cell death; also recorded: can cause human ovarian cancer cell death”. Also, the entries for the “penetration of Oregon Green through the skin, compared to control peptide” value in assay [6] (500 μg/ml) and in assay [6] (2.5 mg/ml) were “slightly increased the penetration of Oregon Green through the skin” and “increased the penetration of Oregon Green through the skin”, respectively. In addition, the “penetration of Rhodamine Green through the skin, compared to control peptide” value in assay [6] (500 μg/ml) and in assay [6] (2.5 mg/ml) was “significantly increased” throughout. The “Percutaneous absorption concentration for Dextran Rhodamine Green 3000” value is 0.8 mg/5ml in assay [6] (setting [7]); 0.4 mg/5ml and 0.8 mg/5ml and 1.2 mg/5ml in assay [6] (setting [8]); 3.52 mg/5ml in assay [6] (setting [9]); 3.0 mg/5ml and 2.0 mg/5ml and 5.556 mg/5ml in assay [6] (setting [10]); 11.15 mg/5ml in assay [6] (setting [11]); 16.174 mg/5ml and 4.074 mg/5ml and 13.158 mg/5ml in assay [6] (setting [12]). For the same compound, the “Percutaneous absorption concentration for Dextran Rhodamine Green 3000” value is 14.72 mg/5ml in assay [6] (setting [13]); 21.044 mg/5ml and 5.556 mg/5ml and 17.565 mg/5ml in assay [6] (setting [14]); 20.02 mg/5ml in assay [6] (setting [15]); 25.747 mg/5ml and 6.481 mg/5ml and 27.826 mg/5ml in assay [6] (setting [16]); 12.66 mg/5ml in assay [6] (setting [17]); 24.52 mg/5ml and 2.4 mg/5ml and 11.05 mg/5ml in assay [6] (setting [18]). The “Percutaneous absorption concentration for Dextran Rhodamine Green 3000” value in assay [6] (setting [19]) is 31.47 mg/5ml; in assay [6] (setting [20]), 45.35 mg/5ml and 25.22 mg/5ml and 23.83 mg/5ml; in assay [6] (setting [21]), 48.78 mg/5ml; in assay [6] (setting [22]) it was 66.28 mg/5ml and 35.22 mg/5ml and 44.85 mg/5ml; in assay [6] (setting [23]) it was 71.28 mg/5ml; in assay [6] (setting [24]), 120.0 mg/5ml and 42.36 mg/5ml and 51.50 mg/5ml. Further, the “Percutaneous absorption concentration for Dextran Rhodamine Green 3000” value is 133.56 mg/5ml in assay [6] (setting [25]); 146.79 mg/5ml and 47.00 mg/5ml and 60.1 mg/5ml in assay [6] (setting [26]). For the same compound, the “Percutaneous absorption concentration for Oregon Green 488” value in assay [6] (setting [7]) was 0.084 mg/5ml; in assay [6] (setting [8]), 0.028 mg/5ml and 0.167 mg/5ml and 0.058 mg/5ml; in assay [6] (setting [9]), 0.225 mg/5ml; in assay [6] (setting [10]) it was 0.096 mg/5ml and 0.322 mg/5ml and 0.352 mg/5ml; in assay [6] (setting [11]), 0.780 mg/5ml; in assay [6] (setting [12]), 0.470 mg/5ml and 1.096 mg/5ml and 0.773 mg/5ml. Moreover, the “Percutaneous absorption concentration for Oregon Green 488” value in assay [6] (setting [13]) is 1.00 mg/5ml; in assay [6] (setting [14]), 0.544 mg/5ml and 1.56 mg/5ml and 0.902 mg/5ml; in assay [6] (setting [15]) it was 1.120 mg/5ml; in assay [6] (setting [16]), 0.665 mg/5ml and 1.725 mg/5ml and 0.971 mg/5ml; in assay [6] (setting [17]), 0.14 mg/5ml; in assay [6] (setting [18]), 0.14 mg/5ml and 0.11 mg/5ml and 0.16 mg/5ml. Also, the “Percutaneous absorption concentration for Oregon Green 488” value in assay [6] (setting [19]) is 0.40 mg/5ml; in assay [6] (setting [20]), 0.44 mg/5ml and 0.32 mg/5ml and 0.45 mg/5ml; in assay [6] (setting [21]) it was 0.54 mg/5ml; in assay [6] (setting [22]) it was 0.67 mg/5ml and 0.33 mg/5ml and 0.63 mg/5ml; in assay [6] (setting [23]) it was 0.88 mg/5ml; in assay [6] (setting [24]) it was 0.76 mg/5ml and 0.88 mg/5ml and 0.99 mg/5ml. The “Percutaneous absorption concentration for Oregon Green 488” value in assay [6] (setting [25]) was 0.82 mg/5ml; in assay [6] (setting [26]) it was 0.83 mg/5ml and 0.56 mg/5ml and 1.06 mg/5ml.
